Measurements: PubChem BioAssay AID434987 (Southern Research Specialized Biocontainment Screening …, 2010)
pIC50: −log10 of the molar value. Calls of active or inactive are those of the source. How the calls were made is not given here.

System: M. tuberculosis H37Rv growth inhibition with meropenem
Assay: dose response, H37Rv, with and without meropenem (AID 434987);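 further: growth over 7 days at 37 °C before Alamar Blue read on day 9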
[1] = M. tuberculosis H37Rv growth inhibition, measured here: IC50 without meropenem
[2] = M. tuberculosis H37Rv growth inhibition, measured here: IC90 without meropenem
[3] = measured here: IC90 with meropenem

Compound: COC(=O)c1c(C)n(-c2ccc(C)cc2)c2ccc(O)cc12
- IC50: > 100 µM (inactive)
- pIC50 [1]: < 4.00
- IC90 [2]: > 100 µM
- IC90 [3]: > 100 µM

Compound: O=C1N=C(N2CCCC2)S/C1=C\c1cccc(Br)c1
- IC50: 30.9 µM (inactive)
- pIC50 [1]: 4.26
- IC90 [2]: > 100 µM
- IC90 [3]: > 100 µM

Compound: S=C(NNc1ccc2ccccc2c1)NC1CCCCC1
- IC50: 8.86 µM (inactive)
- pIC50 [1]: 4.69
- IC90 [2]: 46.7 µM
- IC90 [3]: 41.3 µM

Compound: CCOc1ccc(-c2nnc(SCC(=O)N3CCOCC3)o2)cc1
- IC50: > 100 µM (inactive)
- pIC50 [1]: < 4.00
- IC90 [2]: > 100 µM
- IC90 [3]: > 100 µM

Compound: Cc1ccc(/C=C2/SC(=S)N(CC(=O)Nc3ncc(Cc4ccc(C)cc4)s3)C2=O)cc1
- IC50: > 100 µM (inactive)
- pIC50 [1]: < 4.00
- IC90 [2]: > 100 µM
- IC90 [3]: > 100 µM

Compound: O=C(OCC(=O)N1CCN(C(=O)c2ccco2)CC1)c1cc(-c2ccco2)nc2ccccc12
- IC50: 99.1 µM (inactive)
- pIC50 [1]: < 4.00
- IC90 [2]: > 100 µM
- IC90 [3]: > 100 µM

Compound: CCOC(=O)N1CCN(CC(=O)Nc2nnc(C(F)(F)F)s2)CC1
- pIC50: 4.56
- pIC50 [1]: < 4.00
- IC90 [2]: > 100 µM
- IC90 [3]: 50.1 µM

Compound: O=C(O)CSc1ncnc2c1sc1nc(-c3ccccc3)c3c(c12)CCC3
- pIC50: 4.91
- pIC50 [1]: 4.21
- IC90 [2]: 87.4 µM
- IC90 [3]: 14.2 µM

Compound: OCCCc1cn(-c2ccccc2)c2ccccc12
- pIC50: 4.91
- pIC50 [1]: < 4.00
- IC90 [2]: > 100 µM
- IC90 [3]: 60.8 µM

Compound: O=C1N/C(=C\c2ccc(O)cc2)C(=O)c2ccccc21
- pIC50: 4.66
- pIC50 [1]: 4.22
- IC90 [2]: > 100 µM
- IC90 [3]: > 100 µM

Compound: CC[C@@](C)(NS(=O)(=O)OCC(Cl)(Cl)Cl)c1ccccc1
- IC50: 50.1 µM (inactive)
- pIC50 [1]: 4.02
- IC90 [2]: > 100 µM
- IC90 [3]: 54.8 µM

Compound: Cc1cc(C)c(OCC(=O)Nc2nc3ccccc3[nH]2)c(C)c1
- pIC50: 5.91
- pIC50 [1]: 4.66
- IC90 [2]: > 100 µM
- IC90 [3]: 65.2 µM

Compound: Cn1cc(C(=O)N/N=C/C(Br)=C\c2ccccc2)ccc1=O
- IC50: > 100 µM (inactive)
- pIC50 [1]: < 4.00
- IC90 [2]: > 100 µM
- IC90 [3]: > 100 µM

Compound: CCOc1ccccc1C(=O)Nc1cccc(-c2ccc3nncn3n2)c1
- IC50: 65.3 µM (inactive)
- pIC50 [1]: < 4.00
- IC90 [2]: > 100 µM
- IC90 [3]: > 100 µM

Compound: NC(=S)N/N=C/c1cccc(/C=N/NC(N)=S)c1
- pIC50: 4.60
- pIC50 [1]: < 4.00
- IC90 [2]: > 100 µM
- IC90 [3]: > 100 µM

Compound: COc1cc(NC(=O)c2ccc(CNc3c(N4CCCC4)c(=O)c3=O)cc2)cc(OC)c1OC
- pIC50: 4.62
- pIC50 [1]: < 4.00
- IC90 [2]: > 100 µM
- IC90 [3]: > 100 µM

Compound: OC1C(O)C(O)C(O)C(O)C1O (stereo unspecified)
- IC50: > 100 µM (inactive)
- pIC50 [1]: < 4.00
- IC90 [2]: > 100 µM
- IC90 [3]: > 100 µM

Compound: CC(=O)Nc1nonc1-c1nc2ccccc2n1CCC(C)C
- IC50: > 100 µM (inactive)
- pIC50 [1]: < 4.00
- IC90 [2]: > 100 µM
- IC90 [3]: > 100 µM

Compound: O=C(CCSc1ccc(Cl)c(Cl)c1)NC12CC3CC(CC(C3)C1)C2
- pIC50: 4.93
- pIC50 [1]: 4.18
- IC90 [2]: > 100 µM
- IC90 [3]: 12.3 µM

Compound: Cc1ccc(NC(=O)O/N=C/c2c(C)nn(C(C)(C)C)c2C)cc1Cl
- IC50: > 100 µM (inactive)
- pIC50 [1]: < 4.00
- IC90 [2]: > 100 µM
- IC90 [3]: > 100 µM

Compound: Cc1ccccc1OCC(=O)N/N=C/c1cccc(Oc2ccc([N+](=O)[O-])cc2[N+](=O)[O-])c1
- pIC50: 5.94
- pIC50 [1]: 5.37
- IC90 [2]: 47.8 µM
- IC90 [3]: 5.4 µM

Compound: COc1cc(NC(=O)c2ccc(Cl)cc2)c(OC)cc1NC(=O)CN1CCOCC1
- IC50: > 100 µM (inactive)
- pIC50 [1]: < 4.00
- IC90 [2]: > 100 µM
- IC90 [3]: > 100 µM

Compound: CCO[C@H]1OC(C(=O)NCc2nc3ccccc3[nH]2)=C[C@@H](c2ccc(C(F)(F)F)cc2)[C@@H]1CCCO
- IC50: > 100 µM (inactive)
- pIC50 [1]: < 4.00
- IC90 [2]: > 100 µM
- IC90 [3]: > 100 µM

Compound: O=C(CCN1CCOCC1)c1ccc(N2CCCCC2)cc1
- IC50: 14 µM (inactive)
- pIC50 [1]: 4.56
- IC90 [2]: 37.3 µM
- IC90 [3]: 72.7 µM

Compound: Cc1cc(NC(=O)CSc2nc(C(C)C)nc3sc4c(c23)CCCC4)no1
- IC50: > 100 µM (inactive)
- pIC50 [1]: < 4.00
- IC90 [2]: > 100 µM
- IC90 [3]: > 100 µM

Compound: CCSc1nc2ccccc2c(=O)n1CCc1ccc(OC)c(OC)c1
- IC50: > 100 µM (inactive)
- pIC50 [1]: < 4.00
- IC90 [2]: > 100 µM
- IC90 [3]: > 100 µM

Compound: O=C(OCC(=O)c1c[nH]c2ccccc12)c1cccc([N+](=O)[O-])c1
- IC50: > 100 µM (inactive)
- pIC50 [1]: < 4.00
- IC90 [2]: > 100 µM
- IC90 [3]: > 100 µM

Compound: CCC(C)NCCOCCOc1ccc(Cl)c2ccccc12 (stereo unspecified)
- IC50: 32 µM (inactive)
- pIC50 [1]: 4.42
- IC90 [2]: 53.3 µM
- IC90 [3]: 50.7 µM

Compound: S=c1[nH]cnc2scc(-c3ccc(Br)cc3)c12
- pIC50: 4.54
- pIC50 [1]: 4.01
- IC90 [2]: > 100 µM
- IC90 [3]: > 100 µM
